Experimental data: patent publication US20110034510A1, “ENANTIOMER-ENRICHED ALPHA-,OMEGA-AMINO ALCOHOL DERIVATIVES, THEIR PRODUCTION AND USE AS INSECT- AND MITE-REPELLING AGENTS” (SALTIGO GMBH, priority 2006, published 2011)

Columns and labels:
Aedes aegypti = assay: Repellent test on a guinea pig (Aedes aegypti); format: in vivo; settings: shaved guinea pig back (50 cm^2) treated with 0.4 ml of solution, 3 parts by weight active ingredient in 100 parts by volume ethanol; bites observed 10 minutes, repeated hourly, maximum 9 hours
Protocol: A) Repellent Test on a Guinea Pig
Test Animal: Aedes aegypti (Imagines)
3 parts by weight of active ingredient are taken up in 100 parts by volume of solvent
A guinea pig whose back has been shaved in an area of 50 cm^2 is accommodated in a box such that only the shaved area is accessible to the mosquitoes.
It is observed for 10 minutes how many mosquitoes bite the guinea pig. Subsequently, it is removed and the test is repeated after 1 hour. The experiment is performed for a maximum of 9 hours or until the effect ceases.

mosquitoes = assay: Repellent test against mosquitoes on the human lower arm; format: in vivo; settings: compared to the standard racemic mixture; 150 μl test product on 90 cm^2 of human lower arm; 3-minute exposure every hour for up to 8 hours
From the text: B) Repellent Effectiveness of Formulations for Use Against Mosquitoes on the Human Arm: […]
The insects, as an actively biting population (approx. 1000 mosquitoes of both genders), are kept in cages (length 90 cm, width 30 cm, height 40 cm, side walls made of gauze) which have two light fabric gates on the front side. The insects have been fed exclusively with sugared water (10% Dextropur). The age of the insects is at least 7 days; the number of insects is made up twice per week by 3-day old fully grown insects.
The low electrical illumination of the cage is active from 6 am to 6 pm, with light from 6 pm to 6 am. The temperature is 25-27° C.; the relative air humidity is 50-70%.
The lower arms of the test subjects are washed with unperfumed soap, rinsed with water, then rinsed with a solution of 70% ethanol and 30% water, and dried with a towel.
90 cm^2 of each lower arm of a test subject is rubbed uniformly with 150 μl (or 150 mg) of the test product. As soon as the formulation is dry (after approx. 5 minutes), a sleeve with an opening of 3.1-8 cm (25 cm^2) is bound around the arm such that the opening is completely over the treated surface. The corners of the opening of the sleeve have likewise been rubbed with the test material (2000) in a width of 1 cm in order to prevent bites at the corners. The area above the sleeve has been protected with a towel through which the mosquitoes cannot penetrate. Hands are protected with latex gloves.
Both arms are introduced into the cage through the fabric gate, and the number of bites (and landings, if necessary) per arm is noted within a 3-minute test period. The test is repeated every hour for up to 8 hours, or ended beforehand if the effect ceases (3 or more bites within 3 minutes or during 2 successive test sequences). Each test consists of three to 5 test subjects.

SMILES: CC[C@@H](C)OC(=O)N1CCCC[C@@H]1CCO (single isomer, unassigned)
- Protection time (Aedes aegypti): 4.4 h
- Increase in the protection time* in % (mosquitoes): 3%

SMILES: CCC(C)OC(=O)N1CCCCC1CCO (stereo in doubt) [1-[(R)-sec-butyloxycarbonyl]-2-(S)-(+)-(2-hydroxyethyl)piperidine]
- Protection time (Aedes aegypti): 3.4 h
- Increase in the protection time* in % (mosquitoes): 12%

SMILES: CC[C@H](C)OC(=O)N1CCCC[C@@H]1CCO (stereo in doubt) [1-[(S)-sec-butyloxycarbonyl]-2-(R)-(+)-(2-hydroxyethyl)piperidine]
- Protection time (Aedes aegypti): 4.9 h
- Increase in the protection time* in % (mosquitoes): 0%

SMILES: CC[C@H](C)OC(=O)N1CCCC[C@H]1CCO [1-[(S)-sec-butyloxycarbonyl]-2-(S)-(2-hydroxyethyl)piperidine]
- Protection time (Aedes aegypti): 3.9 h
- Increase in the protection time* in % (mosquitoes): 0%
